Patent US9670261B2 (Sanofi, priority 2012, dated 2017)
*1 amine or outer side, *2 acyl side, *3 side chain or, on linkers, in order; H or OH if unused. Where a SMILES comes first, the peptide text is derived from it. Side-chain parts run from the residue outwards. [ ]: non-standard residue; d: D form. The star is where a group is joined. γGlu = O=C(O)[C@H](CCC(=O)[*:2])N[*:1]; Stearoyl = CCCCCCCCCCCCCCCCCC(=O)*; Palmitoyl = CCCCCCCCCCCCCCCC(=O)*; Aib = CC(C)(N)C(=O)O

Experiments:
[1] = Pharmacokinetic testing in mice, s.c.; settings: mouse, plasma, sc, 1 mg/kg
Protocol: Mice were dosed 1 mg/kg subcutaneously (s.c.). The mice were sacrified and blood samples were collected after 0.25, 0.5, 1, 2, 4, 8, 16 and 24 hours post application. Plasma samples were analyzed after protein precipitation via liquid chromatography mass spectrometry (LC/MS). PK parameters and half-life were calculated using WinonLin Version 5.2.1 (non-compartment model).

[2] = Chemical stability in solution, 7 days at 25° C. (% remaining peptide); settings: % remaining peptide after 7 days at 25° C.
Protocol: After that time course, the sample was centrifuged for 20 min at 4000 rpm and the supernatant was analysed with HPLC-UV. For determination of the amount of the remaining peptide, the peak areas of the target compound at t0 and t7 were compared, resulting in “% remaining peptide”, following the equation % remaining peptide=[(peak area peptide t7)×100]/peak area peptide t0.
The chemical stability is expressed as “% remaining peptide”.

[3] = Solubility testing in buffer (HPLC-UV); settings: buffer
[4] = tested on: non-fasted female diabetic dbdb-mice; assay: Glucose lowering in non-fasted female diabetic dbdb-mice; format: in vivo; settings: 3 μg/kg s.c., at 240 min; baseline 20-22 mmol/l
Source text: Female diabetic dbdb-mice of mean non-fasted glucose value of 20-22 mmol/l and a body weight of 42 g+/−0.6 g (SEM) were used. Mice were individually marked and were adapted to housing conditions for at least one week.
3-5 days prior to study start mice were assigned to groups and cages (4 mice per cage, 8 per group) according to their non-fasted glucose values to ensure even distribution of lower and higher values between groups (stratification). On the study day, mice were weighed and dosed (t=0). Immediately prior to compound administration feed was removed while water remained available, and a first blood sample at a tail incision was drawn (baseline). Further blood samples were drawn at the tail incision at 30, 60, 90, 120, 240, 360, and 480 min.
Statistical analyses are performed with Everstat Version 6.0 based on SAS by 2-way-ANOVA on repeated measures, followed by Dunnett's post-hoc test against vehicle-control. Differences are considered statistically significant at the p<0.05 level.
Female dbdb-mice, received 3 μg/kg of SEQ ID NO: 14, SEQ ID NO: 21 or phosphate buffered saline (vehicle control) subcutaneously, at time 0 min.

human GLP-1 receptor = target: T1, human GLP-1 receptor (Homo sapiens, UniProt P43220); assay: cAMP response (HTRF) of HEK-293 cells stably expressing human GLP-1 receptor; format: cell-based; settings: Table 7; cAMP formation; read-out: EC50 hGLP-1 R
T1 construct: expressed in transfected cells
T1 sequence (P43220 24-463): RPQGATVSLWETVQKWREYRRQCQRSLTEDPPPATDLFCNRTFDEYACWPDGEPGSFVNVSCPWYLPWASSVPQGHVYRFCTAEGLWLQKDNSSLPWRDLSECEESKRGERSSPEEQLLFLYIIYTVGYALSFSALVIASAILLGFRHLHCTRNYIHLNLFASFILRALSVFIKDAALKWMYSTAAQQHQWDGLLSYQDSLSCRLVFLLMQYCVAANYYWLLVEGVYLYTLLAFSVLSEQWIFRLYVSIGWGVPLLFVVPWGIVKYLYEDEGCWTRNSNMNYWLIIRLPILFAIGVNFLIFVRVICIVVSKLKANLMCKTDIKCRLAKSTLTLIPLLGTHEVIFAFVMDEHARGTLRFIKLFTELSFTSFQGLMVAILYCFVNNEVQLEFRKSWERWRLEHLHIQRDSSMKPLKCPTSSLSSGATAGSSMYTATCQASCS
Procedure, shortened: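 Cells grown overnight in DMEM/10% FBS, detached with accutase, resuspended in HBSS with 20 mM HEPES, 0.1% BSA and 2 mM IBMX at 400000 cells/ml. Test compound added and incubated 30 minutes at room temperature; cellular cAMP then measured by HTRF.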

human GIP receptor = target: T2, human GIP receptor (Homo sapiens, UniProt P48546); assay: cAMP response (HTRF) of HEK-293 cells stably expressing human GIP receptor; format: cell-based; settings: Table 7; cAMP formation; read-out: EC50 hGIP R
T2 construct: expressed in transfected cells
T2 sequence (P48546 22-466): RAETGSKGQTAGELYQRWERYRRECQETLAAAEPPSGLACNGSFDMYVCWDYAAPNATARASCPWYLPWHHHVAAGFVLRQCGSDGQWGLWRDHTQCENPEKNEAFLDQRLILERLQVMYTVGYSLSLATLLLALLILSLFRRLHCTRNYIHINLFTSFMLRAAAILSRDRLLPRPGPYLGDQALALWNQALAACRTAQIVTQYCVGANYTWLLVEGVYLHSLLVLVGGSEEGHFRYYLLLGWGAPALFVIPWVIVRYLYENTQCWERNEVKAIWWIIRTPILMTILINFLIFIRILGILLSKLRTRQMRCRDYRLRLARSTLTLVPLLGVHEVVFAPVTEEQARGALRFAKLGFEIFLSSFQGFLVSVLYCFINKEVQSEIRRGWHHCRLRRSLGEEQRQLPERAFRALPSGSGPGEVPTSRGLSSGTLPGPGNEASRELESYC
Protocol: cAMP content of cells was determined using a kit from Cisbio Corp. (cat. no. 62AM4PEC) based on HTRF (Homogenous Time Resolved Fluorescence). For preparation, cells were split into T175 culture flasks and grown overnight to near confluency in medium (DMEM/10% FBS). Medium was then removed and cells washed with PBS lacking calcium and magnesium, followed by proteinase treatment with accutase (Sigma-Aldrich cat. no. A6964). Detached cells were washed and resuspended in assay buffer (1×HBSS; 20 mM HEPES, 0.1% BSA, 2 mM IBMX) and cellular density determined. They were then diluted to 400000 cells/ml and 25 μl-aliquots dispensed into the wells of 96-well plates. For measurement, 25 μl of test compound in assay buffer was added to the wells, followed by incubation for 30 minutes at room temperature.

[5] = tested on: female diabetic dbdb-mice; assay: Glucose, HbA1c and oral glucose tolerance in diabetic dbdb-mice, chronic treatment (method 4); format: in vivo
Protocol: 8 week old, female diabetic dbdb-mice of mean non-fasted glucose value of 14.5 mmol/l and a body weight of 37-40 g were used. Mice were individually marked and were adapted to housing conditions for at least one week.
7 days prior to study start, baseline values for non-fasted glucose and HbA1c were determined, 5 days prior to study start, mice were assigned to groups and cages (5 mice per cage, 10 per group) according to their HbA1c values to ensure even distribution of lower and higher values between groups (stratification).
Mice were treated for 4 weeks, by once daily subcutaneous administration 3 hours prior to the dark phase (6 pm to 6 am). Blood samples from a tail tip incision were obtained for HbA1c on study day 21 and oral glucose tolerance was assessed in the 4th week. Oral glucose tolerance test was done in the morning without prior extra compound administration to majorly assess the effect of chronic treatment and less of acute compound administration. Mice were fasted for 4 hours prior to oral glucose administration (2 g/kg, t=0 min). Blood samples were drawn prior to glucose administration and at 15, 30, 60, 90, 120, and 180 min thereafter. Feed was returned after the last blood sampling. Results are represented as change from baseline, glucose in mmol/l and HbA1c in %.
Statistical analyses are performed with Everstat Version 6.0 based on SAS by 1-way-ANOVA, followed by Dunnett's post-hoc test against vehicle-control. Differences are considered statistically significant at the p<0.05 level.
Female dbdb-mice, received 3 and 10 μg/kg of SEQ ID NO: 16 and 10 μg/kg of SEQ ID NO: 21 or phosphate buffered saline (vehicle control) once daily, subcutaneously over four weeks.

[6] = Pharmacokinetic testing in Göttinger minipigs, s.c.; format: in vivo; settings: female, minipig, plasma, sc, Mini pigs, 0.1 mg/kg s.c.
Protocol: Female Göttinger minipigs were dosed 0.1 mg/kg subcutaneously (s.c.). Blood samples were collected after 0.25, 0.5, 1, 2, 4, 8, 24, 32, 48, 56 and 72 hours post application. Plasma samples were analyzed after protein precipitation via liquid chromatography mass spectrometry (LC/MS). PK parameters and half-life were calculated using WinonLin Version 5.2.1 (non-compartment model).

[7] = tested on: female diet-induced obese (DIO) C57BL/6NCrl mice; assay: Body weight in DIO mice, 14 weeks of prefeeding with high-fat diet (method 2); format: in vivo
Protocol: Female C57BL/6NCrl mice were housed in groups in a specific pathogen-free barrier facility on a 12 h light/dark cycle with free access to water and high-fat diet. After 14 weeks on high-fat diet, mice were stratified to treatment groups (n=8), so that each group had similar mean body weight.
An aged-matched group with ad libitum access to standard chow and water was included as standard control group.
Before the experiment, mice were subcutaneously (s.c.) injected with vehicle solution and weighed for 3 days to acclimate them to the procedures.
Body weight was recorded daily.
Statistical analyses were performed with Everstat 6.0 by repeated measures two-way ANOVA and Dunnett's post-hoc analyses (glucose profile) and 1-way-ANOVA, followed by Dunnett's post-hoc test (body weight, body fat). Differences versus vehicle-treated DIO control mice were considered statistically significant at the p<0.05 level.
Female obese C57BL/6NCrl mice were treated for 3 weeks once daily subcutaneously in the late afternoon, prior the end of the light phase (12 h lights on) with 10 μg/kg SEQ ID NO: 9 and SEQ ID NO: 21 or vehicle. Body weight was recorded daily.

human glucagon receptor = target: T3, human glucagon receptor (Homo sapiens, UniProt P47871); assay: cAMP response (HTRF) of HEK-293 cells stably expressing human glucagon receptor; format: cell-based; settings: Table 7; cAMP formation; read-out: EC50 hGLUC R
T3 construct: expressed in transfected cells
T3 sequence (P47871 26-477): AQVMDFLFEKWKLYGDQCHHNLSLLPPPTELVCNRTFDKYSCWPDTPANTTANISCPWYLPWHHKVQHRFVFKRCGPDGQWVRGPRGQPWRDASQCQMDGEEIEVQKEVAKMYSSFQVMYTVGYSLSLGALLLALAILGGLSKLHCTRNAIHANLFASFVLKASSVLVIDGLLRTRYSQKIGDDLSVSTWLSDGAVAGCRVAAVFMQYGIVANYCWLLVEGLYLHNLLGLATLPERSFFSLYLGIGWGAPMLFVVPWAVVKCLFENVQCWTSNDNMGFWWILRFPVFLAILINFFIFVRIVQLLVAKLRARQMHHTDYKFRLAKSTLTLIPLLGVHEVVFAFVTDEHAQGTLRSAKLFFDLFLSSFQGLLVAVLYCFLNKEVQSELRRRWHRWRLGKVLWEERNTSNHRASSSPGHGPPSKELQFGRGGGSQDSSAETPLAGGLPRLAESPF

Row | SMILES | Cmax [1] [µg/mL] | half-life [1] [h] | Stability (pH 4.5) ([2]; pH 4.5) [%] | Stability (pH 7.4) ([2]; pH 7.4) [%] | solubility at 2 h ([3]; pH 4.5) [mg/mL] | solubility at 2 h ([3]; pH 7.4) [mg/mL] | maximal effect on glucose, change from baseline [4] [mmol/L] | EC50 (human GLP-1 receptor) [pM] | EC50 (human GIP receptor) [pM] | oral glucose tolerance ([5]; once daily s.c., oral glucose 2 g/kg in the 4th week) | reduction of AUC under the glucose curve compared to vehicle control ([5]; oral glucose tolerance test, p<0.05) | maximal effect, glucose reduction [4] [mmol/L] | Cmax [6] [µg/mL] | half-life [6] [h] | decrease of body weight, relative change from baseline ([7]; 10 μg/kg s.c. once daily, 3 weeks) [%] | Overall weight change ([7]; 10 μg/kg, 3-week treatment, mean ± SEM) [g] | EC50 (human glucagon receptor) [pM]
1 | CCCCCCCCCCCCCCCCCC(=O)N[C@@H](CCC(=O)NCCCC[C@H](NC(=O)[C@H](CCC(N)=O)NC(=O)[C@@H](NC(=O)[C@H](CO)NC(=O)[C@H](CC(C)C)NC(=O)[C@H](CC(=O)O)NC(=O)[C@H](CO)NC(=O)[C@@H](NC(=O)[C@H](Cc1ccccc1)NC(=O)[C@@H](NC(=O)CNC(=O)[C@H](CCC(=O)O)NC(=O)C(C)(C)NC(=O)[C@@H](N)Cc1ccc(O)cc1)[C@@H](C)O)[C@@H](C)O)[C@@H](C)CC)C(=O)N[C@@H](CCC(=O)O)C(=O)N[C@@H](CCCCN)C(=O)N[C@@H](CCCNC(=N)N)C(=O)N[C@@H](C)C(=O)N[C@@H](C)C(=O)N[C@@H](CCC(N)=O)C(=O)N[C@@H](CCC(=O)O)C(=O)N[C@@H](Cc1ccccc1)C(=O)N[C@H](C(=O)N[C@@H](CCC(=O)O)C(=O)N[C@@H](Cc1c[nH]c2ccccc12)C(=O)N[C@@H](CC(C)C)C(=O)N[C@@H](CCCCN)C(=O)N[C@@H](C)C(=O)NCC(=O)NCC(=O)N1CCC[C@H]1C(=O)N[C@@H](CO)C(=O)N[C@@H](CO)C(=O)NCC(=O)N[C@@H](C)C(=O)N1CCC[C@H]1C(=O)N1CCC[C@H]1C(=O)N1CCC[C@H]1C(=O)N[C@@H](CO)C(N)=O)[C@@H](C)CC)C(=O)O [SEQ ID NO: 14, Y-Aib-E-G-T-F-T-S-D-L-S-I-Q-K(γE-x70)-EKRAAQEFIEWLKAGGPSSGAPPPS-NH2] (H-Y[Aib]EGTFTSDLSIQK([γGlu-Stearoyl])EKRAAQEFIEWLKAGGPSSGAPPPS-NH2) | 5.34 | 2.8 | 96.0 | 94.0 | > 1 | > 1 | -8 | 4.3 |  |  |  |  |  |  |  |  | 
2 | CCCCCCCCCCCCCCCCCC(=O)N[C@@H](CCC(=O)NCCCC[C@H](NC(=O)[C@H](CCC(N)=O)NC(=O)[C@@H](NC(=O)[C@H](CO)NC(=O)[C@H](CC(C)C)NC(=O)[C@H](CC(=O)O)NC(=O)[C@H](CO)NC(=O)[C@@H](NC(=O)[C@H](Cc1ccccc1)NC(=O)[C@@H](NC(=O)CNC(=O)[C@H](CCC(=O)O)NC(=O)C(C)(C)NC(=O)[C@@H](N)Cc1ccc(O)cc1)[C@@H](C)O)[C@@H](C)O)[C@@H](C)CC)C(=O)N[C@@H](CCC(=O)O)C(=O)N[C@@H](CO)C(=O)N[C@@H](CCCNC(=N)N)C(=O)N[C@@H](C)C(=O)N[C@@H](C)C(=O)N[C@@H](CCC(N)=O)C(=O)N[C@@H](CCC(=O)O)C(=O)N[C@@H](Cc1ccccc1)C(=O)N[C@H](C(=O)N[C@@H](CCC(=O)O)C(=O)N[C@@H](Cc1c[nH]c2ccccc12)C(=O)N[C@@H](CC(C)C)C(=O)N[C@@H](CCCCN)C(=O)N[C@@H](C)C(=O)NCC(=O)NCC(=O)N1CCC[C@H]1C(=O)N[C@@H](CO)C(=O)N[C@@H](CO)C(=O)NCC(=O)N[C@@H](C)C(=O)N1CCC[C@H]1C(=O)N1CCC[C@H]1C(=O)N1CCC[C@H]1C(=O)N[C@@H](CO)C(N)=O)[C@@H](C)CC)C(=O)O [SEQ ID NO: 21, Y-Aib-E-G-T-F-T-S-D-L-S-I-Q-K(γE-x70)-ESRAAQEFIEWLKAGGPSSGAPPPS-NH2] (H-Y[Aib]EGTFTSDLSIQK([γGlu-Stearoyl])ESRAAQEFIEWLKAGGPSSGAPPPS-NH2) | 5.05 | 4 |  |  |  |  |  |  | 6.4 | improved oral glucose tolerance | reached statistical significance | 10 to 12 | 0.479 | 19.1 | ≤ 18.0 | -7.3 ± 0.7 | 
3 | CCCCCCCCCCCCCCCC(=O)N[C@@H](CCC(=O)NCCCC[C@H](NC(=O)[C@H](CCC(N)=O)NC(=O)[C@@H](NC(=O)[C@H](CO)NC(=O)[C@H](CC(C)C)NC(=O)[C@H](CC(=O)O)NC(=O)[C@H](CO)NC(=O)[C@@H](NC(=O)[C@H](Cc1ccccc1)NC(=O)[C@@H](NC(=O)CNC(=O)[C@H](CCC(=O)O)NC(=O)C(C)(C)NC(=O)[C@@H](N)Cc1ccc(O)cc1)[C@@H](C)O)[C@@H](C)O)[C@@H](C)CC)C(=O)N[C@@H](CC(=O)O)C(=O)N[C@@H](CO)C(=O)N[C@@H](CCCNC(=N)N)C(=O)N[C@@H](C)C(=O)N[C@@H](C)C(=O)N[C@@H](CCC(N)=O)C(=O)N[C@@H](CC(=O)O)C(=O)N[C@@H](Cc1ccccc1)C(=O)N[C@H](C(=O)N[C@@H](CCC(=O)O)C(=O)N[C@@H](Cc1c[nH]c2ccccc12)C(=O)N[C@@H](CC(C)C)C(=O)N[C@@H](CCCCN)C(=O)N[C@@H](C)C(=O)NCC(=O)NCC(=O)N1CCC[C@H]1C(=O)N[C@@H](CO)C(=O)N[C@@H](CO)C(=O)NCC(=O)N[C@@H](C)C(=O)N1CCC[C@H]1C(=O)N1CCC[C@H]1C(=O)N1CCC[C@H]1C(=O)N[C@@H](CO)C(N)=O)[C@@H](C)CC)C(=O)O [SEQ ID NO: 22, Y-Aib-E-G-T-F-T-S-D-L-S-I-Q-K(γE-x53)-DSRAAQDFIEWLKAGGPSSGAPPPS-NH2] (H-Y[Aib]EGTFTSDLSIQK([γGlu-Palmitoyl])DSRAAQDFIEWLKAGGPSSGAPPPS-NH2) |  |  |  |  |  |  |  |  |  |  |  |  |  |  |  |  | 11600
